Data on two compounds can be found in patent US8841233B2, “Herbicidal compositions comprising 4-amino-3-chloro-5-fluoro-6-(4-chloro-2-fluoro-3-methoxyphenyl) pyridine-2-carboxylic acid or a derivative thereof and 4-hydroxyphenyl-pyruvate dioxygenase (HPPD) inhibitors” (Dow Agrosciences LLC, priority 2012, dated 2014).

In one assay the test system is LEFCH. The assay can be described thus: In-water applied weed control, transplanted paddy rice, greenhouse (Example II). The format is in vivo, Leptochloa chinensis (L.) Nees. The protocol: (§1) Evaluation of in-Water Applied Herbicidal Mixtures for Weed Control in Transplanted Paddy Rice
(§2) Weed seeds or nutlets of the desired test plant species were planted in puddled soil (mud) prepared by mixing a shredded, non-sterilized mineral soil (50.5 percent silt, 25.5 percent clay, and 24 percent sand, with a pH of about 7.6 and an organic matter content of about 2.9 percent) and water at a 1:1 volumetric ratio. The prepared mud was dispensed in 365 mL aliquots into 16-ounce (oz.) non-perforated plastic pots with a surface area of 86.59 square centimeters (cm^2) leaving a headspace of 3 centimeters (cm) in each pot. Mud was allowed to dry overnight prior to planting or transplanting. Rice seeds were planted in Sun Gro MetroMix® 306 planting mixture, which typically has a pH of 6.0 to 6.8 and an organic matter content of about 30 percent, in plastic plug trays. Seedlings at the second or third leaf stage of growth were transplanted into 840 mL of mud contained in 32-oz. non-perforated plastic pots with a surface area of 86.59 cm^2 4 days prior to herbicide application. The paddy was created by filling the headspace of the pots with 2.5 to 3 cm of water. When required to ensure good germination and healthy plants, a fungicide treatment and/or other chemical or physical treatment was applied. The plants were grown for 4-22 days in a greenhouse with an approximate 14 h photoperiod which was maintained at about 29′C during the day and 26° C. during the night. Nutrients were added as Osmocote® (19:6:12, N:P:K+ minor nutrients) at 2 g per 16-oz. pot and 4 g per 32-oz. pot. Water was added on a regular basis to maintain the paddy flood, and supplemental lighting was provided with overhead metal halide 1000-Watt lamps as necessary. The plants were employed for testing when they reached the first through fourth true leaf stage.
Treatments consisted of the acid or esters of 4-amino-3-chloro-5-fluoro-6-(4-chloro-2-fluoro-3-methoxy-phenyl)pyridine-2-carboxylic acid (compound A) each formulated as an SC (suspension concentrate) and various herbicidal components alone and in combination. Forms of compound A were applied on an acid equivalent basis.
Other herbicidal components were applied on an active ingredient basis and included 4-hydroxyphenyl pyruvate dioxygenase (HPPD)-inhibiting herbicides mesotrione formulated as Callisto®, sulcotrione formulated as Mikado®, pyrazolynate formulated as Sunbird® 10% GR, and benzobicyclon formulated as Benzobicyclon 3.5% or technical material.
(§3) Treatment requirements for each compound or herbicidal component were calculated based upon the rates being tested, the concentration of active ingredient or acid equivalent in the formulation, an application volume of 2 mL per component per pot, and an application area of 86.59 cm^2 per pot.
For formulated compounds, a measured amount was placed in an individual 100 or 200 mL glass vial and was dissolved in a volume of 1.25% (v/v) Agri-Dex® crop oil concentrate to obtain application solutions.
For technical grade compounds, a weighed amount was placed in an individual 100 to 200 mL glass vial and was dissolved in a volume of acetone to obtain concentrated stock solutions. […] The concentrated stock solutions obtained were diluted with an equivalent volume of an aqueous mixture containing 2.5% (v/v) crop oil concentrate so that the final application solutions contained 1.25% (v/v) crop oil concentrate.
Applications were made by injecting with a pipetter appropriate amounts of the application solutions, individually and sequentially, into the aqueous layer of the paddy. Control plants were treated in the same manner with the solvent blank. Applications were made so that all treated plant material received the same concentrations of acetone and crop oil concentrate.
The treated plants and control plants were placed in a greenhouse as described above and water was added as needed to maintain a paddy flood. […]

In the next assay the test system is SCPJU. The description is as above. It counts as in vivo, Schoenoplectus juncoides (Roxb.) Palla. The following applies: 4.38 gae/ha. The procedure: as §1
as §2, with “Water was added on a regular basis to maintain the paddy flood, and supplemental lighting was provided with overhead metal halide 1000-Watt lamps as necessary. The plants were employed for testing when they reached the first through fourth true leaf stage.” left out
as §3
For formulated compounds, a measured amount was placed in an individual 100 or 200 mL glass vial and was dissolved in a volume of 1.25% (v/v) Agri-Dex® crop oil concentrate to obtain application solutions. […]

A further assay has as its system SETVI. The assay can be described thus: Pre-emergence soil-applied weed control, greenhouse (Example III). It counts as in vivo, Setaria viridis (L.) Beauv. From the text:
(§4) Evaluation of Pre-emergence Soil-Applied Herbicidal Mixtures for Weed Control
(§5) Seeds or nutlets of the desired test plant species were planted in a soil matrix prepared by mixing a loam soil (32 percent silt, 23 percent clay, and 45 percent sand, with a pH of about 6.5 and an organic matter content of about 1.9 percent) and calcareous grit in an 80 to 20 ratio. The soil matrix was contained in plastic pots with a volume of 1 quart and a surface area of 83.6 square centimeters (cm^2).
(§6) Treatments consisted of the benzyl ester of 4-amino-3-chloro-5-fluoro-6-(4-chloro-2-fluoro-3-methoxy-phenyl)pyridine-2-carboxylic acid (compound A) formulated as an SC (suspension concentrate) and various herbicidal components alone and in combination. Forms of compound A were applied on an acid equivalent basis.
(§7) Other herbicidal components were applied on an acid equivalent or active ingredient basis and included the 4-hydroxyphenyl pyruvate dioxygenase (HPPD)-inhibiting herbicide, isoxaflutole, formulated as Balance Pro®.
(§8) Treatment requirements were calculated based upon the rates being tested, the concentration of active ingredient or acid equivalent in the formulation, and a 12 mL application volume at a rate of 187 L/ha.
(§9) For treatments comprised of formulated compounds, measured amounts of compounds were placed individually in 25 mL glass vials and diluted in a volume of 1.25% (v/v) Agri-Dex® crop oil concentrate (COC) to obtain 12× stock solutions. […] Application solutions were prepared by adding an appropriate amount of each stock solution (e.g., 1 mL) and diluted to the appropriate final concentrations with the addition of 10 mL of an aqueous mixture of 1.25% (v/v) COC so that the final spray solutions contained 1.25% (v/v) COC.
(§10) All stock solutions and applications solutions were visually inspected for compound compatibility prior to application. Spray solutions were applied to the soil with an overhead Mandel track sprayer equipped with a 8002E nozzles calibrated to deliver 187 L/ha over an application area of 0.503 m^2 at a spray height of 18 inches (46 cm) above average pot height. Control pots were sprayed in the same manner with the solvent blank.
(§11) The treated and control pots were placed in a greenhouse and top watered as needed. When required to ensure good germination and healthy plants, a fungicide treatment and/or other chemical or physical treatment was applied. […] After approximately 4 weeks, the condition of the test plants as compared with that of the untreated plants was determined visually and scored on a scale of 0 to 100 percent where 0 corresponds to no injury or growth inhibition and 100 corresponds to complete kill. […]

For a further assay, the system named is XANST. The assay is described as above. It counts as in vivo, Xanthium strumarium L.
Text: as §4, §5, §6, §7, §8, §9, §10, §11

Regarding `COc1c(Cl)ccc(-c2nc(C(=O)OCc3ccccc3)c(Cl)c(N)c2F)c1F` [Compound A Benzyl Ester, benzyl ester of 4-amino-3-chloro-5-fluoro-6-(4-chloro-2-fluoro-3-methoxy-phenyl)pyridine-2-carboxylic acid], the “Visual Weed Control (%) - 21 DAA LEFCH Obs” value in the assay on LEFCH (4.38 gae/ha) and in the assay with LEFCH (8.75 gae/ha) was 15% in each case. Also, the “Visual Weed Control (%) - 21 DAA SCPJU Obs” value in the assay with SCPJU is 70%. Moreover, the figures for the “Visual Weed Control (%) - 32 DAA SETVI Obs” value in the assay on SETVI (16 gae/ha) and in the assay with SETVI (32 gae/ha) were 0% and 13%, respectively. For the same compound, the results for the “Visual Weed Control (%) - 32 DAA XANST Obs” value in the assay with XANST (8 gae/ha), in the assay with XANST (16 gae/ha) and in the assay with XANST (32 gae/ha) were 33%, 35% and 65%, respectively.

Regarding `COc1c(Cl)ccc(-c2nc(C(=O)O)c(Cl)c(N)c2F)c1F` [Compound A Acid, 4-amino-3-chloro-6-(4-chloro-2-fluoro-3-methoxyphenyl)-5-fluoropyridine-2-carboxylic acid], the “Visual Weed Control (%) - 21 DAA LEFCH Obs” value in the assay with LEFCH (8.75 gae/ha) and with LEFCH (17.5 gae/ha) was 0% each time.
